Assay results from BindingDB's records for doi:10.7270/Q22R3Q4F (Broad Institute, 2010).

Target: T1, Alkanal monooxygenase alpha chain (Vibrio harveyi, UniProt P07740)
T1 sequence (P07740 whole entry): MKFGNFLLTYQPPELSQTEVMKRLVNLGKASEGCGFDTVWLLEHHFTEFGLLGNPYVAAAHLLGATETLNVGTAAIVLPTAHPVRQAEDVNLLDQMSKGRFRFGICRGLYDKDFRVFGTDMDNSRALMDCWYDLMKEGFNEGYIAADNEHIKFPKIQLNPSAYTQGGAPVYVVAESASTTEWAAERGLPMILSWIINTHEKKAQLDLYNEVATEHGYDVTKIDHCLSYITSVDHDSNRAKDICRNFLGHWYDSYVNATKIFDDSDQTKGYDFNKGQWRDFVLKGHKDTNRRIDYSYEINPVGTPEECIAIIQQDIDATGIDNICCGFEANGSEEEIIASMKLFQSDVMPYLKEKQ
Experiment: bacterial growth suppression, V. harveyi, absorbance, dose retest, confirmation (AID 2723)

| SMILES | EC50 [µM] |
| --- | --- |
| C=Cn1c(C(=O)O)ccc1-c1ccc(CC)cc1 | > 160 |
| COc1cc(NC(=O)CN2C(=O)NC(c3ccccc3)(c3ccccc3)C2=O)cc(OC)c1 [MLS001176525] | > 160 |
| CCc1ccc(S(=O)(=O)Nc2ccc(Br)cn2)cc1 [MLS001211346] | > 160 |
| CCCc1ccc(S(=O)(=O)N(C)S(=O)(=O)c2ccc(F)cc2)cc1 [N-(4-fluorophenyl)sulfonyl-N-methyl-4-propylbenzenesulfonamide] | 7.78 |
| CN(C)S(=O)(=O)c1ccc(NC(=S)NC(=O)Cc2ccccc2)cc1 [N-[[4-(dimethylsulfamoyl)phenyl]carbamothioyl]-2-phenyl-ethanamide] | > 160 |
| Cc1cccc(NS(=O)(=O)c2ccc(Oc3ccccc3)cc2)n1 [SMR000071466] | > 160 |
| Cn1cnc(S(=O)(=O)Nc2ccc(OC(F)(F)F)cc2)c1 [SMR000314513] | > 160 |
